# Measurements as given in US5688773A, “Method of selectively destroying neoplastic cells” (priority 1994, dated 1997).
# “And” between values parts separate entries of the source, which are not always exact repeats. Equal entries are not always repeated.
# What was measured:
# C6BAG cells = assay: Ganciclovir sensitivity, cell proliferation assay; format: cell-based, rat; settings: even at 1000 nM ganciclovir
# Experimental: (§1) Ganciclovir Sensitivity Assays in Culture: To measure the sensitivity of isolated cells, cells were plated in 24-well plates at a density of 10^4 cells per well. The next day, medium was replaced with medium containing ganciclovir (Cytovene, Burroughs Wellcome) at varying concentrations (0-1 μM) in quadruplicate. Four days later, cells were harvested using trypsin and counted using a cell counter (Coulter Electronics Ltd., Luton, United Kingdom). Cell growth is expressed as the percentage of cells compared to the number of cells without treatment (100%).
# C6BAGWT cells = assay: Ganciclovir sensitivity, cell proliferation assay; format: cell-based, rat; settings: even at 1000 nM ganciclovir
# Experimental: as §1
# [1] = test system: C6BU1 (HSV-TK negative) cells; assay: Ganciclovir sensitivity, cell proliferation assay; format: cell-based, rat; settings: even at 1000 nM ganciclovir
# Experimental: as §1
# C6BBAG cells = assay: Ganciclovir sensitivity, cell proliferation assay; format: cell-based, rat; settings: even at 1000 nM ganciclovir
# Experimental: as §1
# C6BWT cells = assay: Ganciclovir sensitivity, cell proliferation assay; format: cell-based, rat; settings: even at 1000 nM ganciclovir
# Experimental: as §1
# [2] = test system: cytochrome P450 2B1-expressing MCF-7 cells; assay: MCF-7 tumors in nude mouse model; format: in vivo, nude mice; settings: 100 mg/kg ×2 intraperitoneal, day 0 and day 2
# Experimental: (§2) MCF-7 cells or stable MCF-7 cell transfectants expressing cytochrome P450 2B1 or E. coli β-galactosidase (lacZ) were grown in cell culture. Cells in the exponential growth phase were harvested and then injected subcutaneously (1×10^7 cells in 0.2 mL) in the flanks of nude mice. A single 17β-estradiol pellet (1.7 mg hormone/60-day release pellet, Innovative Research, Toledo, Ohio) was implanted one day before tumor inoculation. At one month after tumor inoculation, the size of each tumor was measured using a vernier caliper.
# (§3) Nude mice were then treated with cyclophosphamide given at 100 mg/kg body weight×2, by intraperitoneal injection given on day 0 and again on day 2. Tumor size measurements were then again determined using a vernier caliper, and data are expressed relative to tumor sizes as of day 0, the day of initial cyclophosphamide (CPA) injection.
# control tumor MCF-7 Z3 = assay: MCF-7 tumors in nude mouse model; format: in vivo, nude mice; settings: 100 mg/kg ×2 intraperitoneal, day 0 and day 2
# Experimental: as §2, §3
# [3] = test system: C6 glioma plus CRELacZ cells; assay: Brain tumor model, fibroblast graft then intrathecal/intratumoral CPA; format: in vivo, athymic mice
# Experimental: (§4) For intracerebral injections, mice were anesthetized with an intraperitoneal injection of Ketamin (100 mg per kg body weight) (Parke Davis, NJ) and Xylazine (20 mg per kg body weight) (Mobay Corp., KS). Surgical procedures were performed in a sterile fashion. After immobilizing the rodent in stereotactic apparatus (Kopf), a small incision was made in the skin overlying the skull. C6 glioma cells (10^3 cells in 2 μl) were stereotactically inoculated approximately 0.5 mm frontal and 0.5 mm right lateral to the bregma using a Hamilton syringe. The inoculation period was 5 minutes, with 2 minutes allowed for needle retraction. Three days later, the same burrhole was employed for the stereotactic grafting of 5×10^6 CRELacZ cells (cell line kindly provided by Dr. R. Mulligan, MIT) or 5×10^6 R450-2 cells in 25 μl of DMEM. Four, eight, and eleven days after this last injection, CPA (0.3 mg in 5 μl) was administered stereotactically, through the same skull opening, into the tumor and meningeal space of mice from both CRELacZ and R450-2 groups. Injections were carried out stereotactically over a period of ten minutes, with five minutes allowed for needle retraction. Animals were sacrificed, ten days after injection of the last dose of prodrug, by perfusing through the left ventricle approximately 3-5 mL of 100 mM sodium phosphate in 0.9% sodium chloride, pH 7.3, followed by 4% paraformaldehyde in 100 mM sodium phosphate, pH 7.3. Brains were carefully dissected from the skull and jaws of the animals, prior to placement overnight in 4% paraformaldehyde in 100 mM sodium phosphate, pH 7.3. For cryopreservation, brains were placed in 20% glycerol/10% dimethylsulfoxide in 100 mM sodium phosphate, pH 7.3, and then cut in 50 micron sections with a sledge microtome. Every sixth section was mounted onto gelatin-coated slides and stained with cresyl violet. To calculate brain tumor volumes, a computerized-image analyzer was used to scan tumor areas on each section. This analysis was performed in a blind fashion. Manual contouring was performed to distinguish tumor from normal brain cysts, or processing artifacts. Tumor volumes were obtained by multiplying the average tumor area from all sections in a brain by the distance (0.3 mm) between and including each section.
# [4] = test system: C6 glioma plus R450-2 cells; assay: as above; format: in vivo, athymic mice
# Experimental: as §4
# [5] = test system: C6 cells exposed to CM from C6-P450; assay: C6 colony formation after conditioned medium from drug-exposed cells; settings: for Colony numbers: colonies six days later
# C450-8 tumors = assay: Cyclophosphamide sensitivity of subcutaneous tumors; format: in vivo, nude mice; settings: day 17
# Experimental: (§5) Animal Studies: For animal injections, cultured cells in the proliferative stage were replated 24 hours before harvesting, then trypsinized, centrifuged at low speed, washed once by resuspension in Hank's buffered saline, centrifuged, and then resuspended in DMEM without serum at a density of 5×10^6 cells/mL. For subcutaneous injections, 10^6 C450-8 or C6 cells in 200 μl were injected into the flanks of athymic mice (NCY/Sed, nu/nu; MGH breeding colony; five animals per group). After 3 days, when tumors had reached a volume of about 0.01 cm^3 (as measured by external calipers) (Lee et al., Neurosurgery 26:598-605 (1990) and again at 14 days, 100 μl injections of either 20 mg CPA (Sigma) per mL saline or 100 μl saline were performed directly into the tumor mass. Animals were sacrificed at 17 days by euthanasia.
# C6 tumors = assay: as above; format: in vivo, nude mice; settings: day 17
# Experimental: as §5
# [6] = CPA 0.3 mg on days 4, 8, 11 after graft, sacrifice ten days after last dose
# [7] = individual animals, after cyclophosphamide administration
# [8] = 2 mg CPA intratumorally day 3 and 14
smiles,measurement,setting,value
Nc1nc(O)c2ncn(COC(CO)CO)c2n1 [ganciclovir],Inhibition of growth,C6BAG cells,No substantial inhibition of growth
same,Inhibition of growth,C6BAGWT cells,No substantial inhibition of growth
same,Inhibition of growth,[1],No substantial inhibition of growth
same,Inhibition of growth,C6BBAG cells,No substantial inhibition of growth
same,Inhibition of growth,C6BWT cells,No substantial inhibition of growth
O=P1(N(CCCl)CCCl)NCCCO1 (centres unmarked) [cyclophosphamide],Tumor cell kill in vivo,[2],preferentially killed
same,Tumor cyclophosphamide sensitivity in vivo,control tumor MCF-7 Z3,only a moderate cyclophosphamide sensitivity
same,animals with extensive and friable meningeal tumor,[3]; [6],8/8
same,Tumor necrosis of parenchymal tumors,[3]; histopathology of six brains,essentially no tumor necrosis
same,Volumes of parenchymal brain tumors,[3]; [7],47.5 mm^3 and 51.5 mm^3 and 54.7 mm^3 and 62.4 mm^3 and 72.6 mm^3 and 85.1 mm^3
same,animals with a small residual meningeal mass,"[4]; CPA 0.3 mg on days 4, 8, 11 after graft",1/8
same,animals with no evidence of meningeal tumor,[4]; [6],7/8
same,brains with extensive tumor necrosis,[4]; histopathology of six brains,3/6
same,Volumes of parenchymal brain tumors,[4]; [7],3.2 mm^3 and 14.2 mm^3 and 28.4 mm^3 and 87.4 mm^3 and 105.3 mm^3 and 171.4 mm^3
same,brain tumor volume as fraction of average volume in lacZ-producer controls,"[4]; three of six animals, listed as CPA",approximately 1/20 and 1/5 and 1/2
same,Colony numbers,[5]; CM after 0.5 h of 0.5 mM CPA,263 ± 6
same,Colony numbers,[5]; CM after 1.5 h of 0.5 mM CPA,267 ± 9
same,Colony numbers,[5]; CM after 3 h of 0.5 mM CPA,144 ± 19
same,Colony numbers,[5]; CM after 6 h of 0.5 mM CPA,94 ± 8
same,Colony numbers,[5]; CM after 10 h of 0.5 mM CPA,12 ± 0.3
same,Colony numbers,[5]; CM after 24 h of 0.5 mM CPA,0
same,Colony numbers,[5]; CM after 32 h of 0.5 mM CPA,0
same,Colony numbers,[5]; CM after 48 h of 0.5 mM CPA,0
same,Colony numbers,[5]; CM after 72 h of 0.5 mM CPA,0
same,Colony numbers,[5]; CM after 96 h of 0.5 mM CPA,0
same,Inhibition of C6 cell colony formation,[5]; CM after exposure to CPA for 24 hours,Complete inhibition
same,Toxicity of conditioned medium to C6 cell growth / colony formation,"[5]; CM from treated C6-P450 cells, nine days",highly toxic
same,"Secretion effect, C6 colony number","[5]; Table V panel C, CM from treated C6-P450 cultures",0
same,Tumor volume,C450-8 tumors; [8],0.016±0.003 cm^3
same,ratio of the mean volumes of CPA-treated to saline-treated tumors,C450-8 tumors,0.035
same,Tumor volume,C6 tumors; [8],0.093±0.035 cm^3
same,ratio of the mean volumes of CPA-treated to saline-treated tumors,C6 tumors,0.124
